Measurements taken from patent US11040981B2, “Pyrrolotriazine compounds and methods of inhibiting TAM kinases” (Syros Pharmaceuticals, Inc., priority 2017, dated 2021).

Key:
[1] = biological target: T1, AXL (Homo sapiens, UniProt P30530); assay: TR-FRET kinase activity assay, AXL; format: biochemical; conditions: ATP at Km, 60 minutes
T1 sequence (P30530 26-894): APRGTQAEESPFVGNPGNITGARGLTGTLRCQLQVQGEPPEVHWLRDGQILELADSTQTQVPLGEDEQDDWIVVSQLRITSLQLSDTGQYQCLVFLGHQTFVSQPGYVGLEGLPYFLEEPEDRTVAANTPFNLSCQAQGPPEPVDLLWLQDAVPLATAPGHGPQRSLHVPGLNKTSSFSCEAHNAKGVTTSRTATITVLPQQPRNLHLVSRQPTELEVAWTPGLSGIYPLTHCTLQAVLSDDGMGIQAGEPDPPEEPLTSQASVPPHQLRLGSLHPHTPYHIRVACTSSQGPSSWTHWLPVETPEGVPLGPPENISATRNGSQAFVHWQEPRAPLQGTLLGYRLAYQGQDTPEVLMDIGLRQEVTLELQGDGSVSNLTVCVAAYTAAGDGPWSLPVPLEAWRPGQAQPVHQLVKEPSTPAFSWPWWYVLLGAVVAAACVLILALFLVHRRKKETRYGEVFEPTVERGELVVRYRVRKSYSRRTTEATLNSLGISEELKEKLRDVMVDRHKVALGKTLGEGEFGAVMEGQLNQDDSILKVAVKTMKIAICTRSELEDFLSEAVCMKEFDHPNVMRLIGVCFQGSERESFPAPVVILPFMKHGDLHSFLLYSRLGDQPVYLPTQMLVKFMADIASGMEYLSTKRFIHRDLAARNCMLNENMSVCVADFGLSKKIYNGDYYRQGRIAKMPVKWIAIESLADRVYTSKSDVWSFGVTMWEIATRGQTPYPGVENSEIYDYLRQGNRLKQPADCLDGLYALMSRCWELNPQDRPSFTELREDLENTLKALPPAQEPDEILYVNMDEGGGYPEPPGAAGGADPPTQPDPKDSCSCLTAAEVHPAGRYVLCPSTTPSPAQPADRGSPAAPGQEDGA
Method in brief: (§1)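 Compounds were tested against each kinase with ATP set at its own Km and a labelled tyrosine peptide substrate. Following one hour at room temperature in buffer containing 10 mM MgCl2 and 1 mM DTT, phosphorylated product was detected by Europium antibody TR-FRET after EDTA quench, and IC50 values were calculated.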

[2] = biological target: T2, FLT3 (Homo sapiens, UniProt P36888); assay: TR-FRET kinase activity assay, FLT3; format: biochemical; conditions: ATP at Km, 60 minutes
T2 sequence (P36888 27-993): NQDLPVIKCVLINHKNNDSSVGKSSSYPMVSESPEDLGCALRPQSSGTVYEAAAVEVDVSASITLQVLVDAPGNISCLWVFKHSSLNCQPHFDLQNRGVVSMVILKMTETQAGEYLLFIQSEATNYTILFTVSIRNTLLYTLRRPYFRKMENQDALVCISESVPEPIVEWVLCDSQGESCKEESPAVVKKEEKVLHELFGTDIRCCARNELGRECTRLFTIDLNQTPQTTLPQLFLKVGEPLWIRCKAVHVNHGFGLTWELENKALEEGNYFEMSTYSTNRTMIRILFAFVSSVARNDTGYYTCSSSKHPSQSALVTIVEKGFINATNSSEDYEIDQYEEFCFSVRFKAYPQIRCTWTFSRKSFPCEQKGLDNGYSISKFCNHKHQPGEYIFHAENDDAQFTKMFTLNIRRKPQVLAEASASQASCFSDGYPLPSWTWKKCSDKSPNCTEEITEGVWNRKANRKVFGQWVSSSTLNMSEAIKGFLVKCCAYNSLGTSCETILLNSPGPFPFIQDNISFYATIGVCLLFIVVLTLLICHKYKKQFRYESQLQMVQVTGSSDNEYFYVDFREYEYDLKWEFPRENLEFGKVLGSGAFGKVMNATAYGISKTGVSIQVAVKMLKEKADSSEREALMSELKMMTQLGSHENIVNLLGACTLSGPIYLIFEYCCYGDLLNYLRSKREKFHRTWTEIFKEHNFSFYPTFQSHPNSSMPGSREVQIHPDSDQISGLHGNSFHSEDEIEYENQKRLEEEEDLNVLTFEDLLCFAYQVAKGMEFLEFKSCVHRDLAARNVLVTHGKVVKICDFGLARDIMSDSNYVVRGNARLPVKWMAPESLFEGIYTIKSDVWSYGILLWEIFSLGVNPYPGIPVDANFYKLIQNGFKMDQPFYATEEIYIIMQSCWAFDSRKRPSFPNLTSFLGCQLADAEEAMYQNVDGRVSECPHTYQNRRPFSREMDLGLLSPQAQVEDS
Method in brief: as §1

Row | SMILES | IC50 [1] | IC50 [2]
1 | COC[C@H](C)Nc1ncc2c([C@H]3CCN(S(C)(=O)=O)C3)cc([C@H]3CC[C@H](O)CC3)n2n1 [Compound 376] | 100 to 1000 nM | 1000 to 10000 nM
2 | COC[C@H](C)Nc1ncc2c([C@H]3CCCN(c4ccnc(C)n4)C3)cc([C@H]3CC[C@H](O)CC3)n2n1 [Compound 377] | 100 to 1000 nM | 1000 to 10000 nM
3 | COC[C@H](C)Nc1ncc2c([C@@H]3CCCN(c4ccnc(C)n4)C3)cc([C@H]3CC[C@H](O)CC3)n2n1 [Compound 378] | 1000 to 10000 nM | 1000 to 10000 nM
4 | COCC(C)Nc1ncc2c(-c3cnn(CC4CCCO4)c3)cc(C3CCC(O)CC3)n2n1 (stereo not drawn) [Compound 379] | ≤ 100 nM | 100 to 1000 nM
5 | COC[C@H](C)Nc1ncc2c(-c3cnn(CC4CCCO4)c3)cc([C@H]3CC[C@H](O)CC3)n2n1 (stereo partly drawn) [Compound 380] | ≤ 100 nM | 100 to 1000 nM
6 | COC[C@H](C)Nc1ncc2c(-c3ccnc(C)c3)cc([C@H]3CC[C@@](C)(O)CC3)n2n1 [Compound 381] | ≤ 100 nM | 1000 to 10000 nM
7 | COC[C@H](C)Nc1ncc2c(-c3cnn(CCC#N)c3)cc([C@H]3CC[C@](C)(O)CC3)n2n1 [Compound 382] | ≤ 100 nM | 100 to 1000 nM
8 | CNC(=O)c1cc(-c2cc([C@H]3CC[C@H](O)CC3)n3nc(N[C@@H](C)CC(F)(F)F)ncc23)ccn1 [Compound 384] | ≤ 100 nM | ≤ 100 nM
9 | CNC(=O)c1cc(-c2cc([C@H]3CC[C@H](O)CC3)n3nc(N[C@@H](C)COC(F)F)ncc23)cc(C)n1 [Compound 385] | 100 to 1000 nM | 1000 to 10000 nM
10 | COC[C@H](C)Nc1ncc2c(-c3ccnc(O[C@H]4CCNC4)c3)cc([C@H]3CC[C@H](O)CC3)n2n1 [Compound 386] | ≤ 100 nM | 100 to 1000 nM
11 | C[C@@H](CN(C)C)Nc1ncc2c(-c3cnn(C4COC4)c3)cc([C@H]3CC[C@H](O)CC3)n2n1 [Compound 387] | 1000 to 10000 nM | 1000 to 10000 nM
12 | C[C@H](CN(C)C)Nc1ncc2c(-c3cnn(C4COC4)c3)cc([C@H]3CC[C@H](O)CC3)n2n1 [Compound 388] | 1000 to 10000 nM | 1000 to 10000 nM
13 | COC[C@H](C)Nc1ncc2c(-c3ccnc(O[C@H]4CCCNC4)c3)cc([C@H]3CC[C@H](O)CC3)n2n1 [Compound 389] | ≤ 100 nM | 100 to 1000 nM
14 | COC[C@H](C)Nc1ncc2c(-c3ccnc(O[C@@H]4CCCNC4)c3)cc([C@H]3CC[C@H](O)CC3)n2n1 [Compound 390] | ≤ 100 nM | 100 to 1000 nM
15 | COC[C@H](C)Nc1ncc2c(-c3ccnc(C)c3)cc([C@H]3CC[C@](C)(O)CC3)n2n1 [Compound 391] | ≤ 100 nM | 100 to 1000 nM
16 | COC[C@H](C)Nc1ncc2c(-c3cnn(CC4CCOCC4)c3)cc([C@H]3CC[C@H](O)CC3)n2n1 [Compound 392] | ≤ 100 nM | ≤ 100 nM
17 | CC(COC(F)F)Nc1ncc2c(-c3cnn(C(C)(C)C(=O)N4CCOCC4)c3)cc(C3CCC(O)CC3)n2n1 (stereo not drawn) [Compound 393] | ≤ 100 nM | ≤ 100 nM
18 | COC[C@H](C)Nc1ncc2c(-c3cnn(C4CCN(C)C4=O)c3)cc([C@H]3CC[C@H](O)CC3)n2n1 (stereo partly drawn) [Compound 394, 3-(4-(7-((trans)-4-hydroxycyclohexyl)-2-(((S)-1-methoxypropan-2-yl)amino)pyrrolo[2,1-f][1,2,4]triazin-5-yl)-1H-pyrazol-1-yl)-1-methylpyrrolidin-2-one] | ≤ 100 nM | 100 to 1000 nM
19 | COC[C@H](C)Nc1ncc2c(-c3cnn(CC4CC(=O)N(C)C4)c3)cc([C@H]3CC[C@H](O)CC3)n2n1 (stereo partly drawn) [Compound 395] | ≤ 100 nM | 100 to 1000 nM
20 | COC[C@H](C)Nc1ncc2c(-c3cnn([C@@H]4CCN(C(C)=O)C4)c3)cc([C@H]3CC[C@H](O)CC3)n2n1 [Compound 396] | ≤ 100 nM | 100 to 1000 nM
21 | COC[C@H](C)Nc1ncc2c(-c3cnn([C@H]4CCN(C(C)=O)C4)c3)cc([C@H]3CC[C@H](O)CC3)n2n1 [Compound 397] | ≤ 100 nM | 100 to 1000 nM
22 | CNC(=O)c1cncc(-c2cc([C@H]3CC[C@H](O)CC3)n3nc(N[C@@H](C)COC(F)F)ncc23)c1 [Compound 398] | ≤ 100 nM | 1000 to 10000 nM
23 | COC[C@H](C)Nc1ncc2c(-c3cnn(C4COC4)c3)cc(C3CCC(=O)CC3)n2n1 [Compound 406] | 100 to 1000 nM | 100 to 1000 nM

Continued, values first:

Row | IC50 [1] | IC50 [2] | SMILES
24 | ≤ 100 nM | 100 to 1000 nM | CC1(Nc2ncc3c(-c4cnn(C5COC5)c4)cc(C4CCC(O)CC4)n3n2)COC1 (stereo not drawn) [Compound 399]
25 | ≤ 100 nM | 100 to 1000 nM | COC[C@H](C)Nc1ncc2c(-c3ccnc(O[C@H]4CCN(C)C4)c3)cc([C@H]3CC[C@H](O)CC3)n2n1 [Compound 400]
26 | ≤ 100 nM | 100 to 1000 nM | COC[C@H](C)Nc1ncc2c(-c3ccnc(O[C@@H]4CCNC4)c3)cc([C@H]3CC[C@H](O)CC3)n2n1 [Compound 401]
27 | ≤ 100 nM | 100 to 1000 nM | COC[C@H](C)Nc1ncc2c(-c3ccnc(O[C@@H]4CCN(C)C4)c3)cc([C@H]3CC[C@H](O)CC3)n2n1 [Compound 402]
28 | ≤ 100 nM | 100 to 1000 nM | COC[C@H](C)Nc1ncc2c(-c3ccnc(O[C@H]4CCCN(C)C4)c3)cc([C@H]3CC[C@H](O)CC3)n2n1 [Compound 403]
29 | ≤ 100 nM | 100 to 1000 nM | COC[C@H](C)Nc1ncc2c(-c3ccnc(O[C@@H]4CCCN(C)C4)c3)cc([C@H]3CC[C@H](O)CC3)n2n1 [Compound 404]
30 | ≤ 100 nM | ≤ 100 nM | C[C@@H](COC(F)F)Nc1ncc2c(-c3ccnc(N4CCOCC4)c3)cc([C@H]3CC[C@H](O)CC3)n2n1 [Compound 405]
31 | ≤ 100 nM | 100 to 1000 nM | CNC(=O)c1ncc(-c2cc([C@H]3CC[C@H](O)CC3)n3nc(N[C@@H](C)COC(F)F)ncc23)cn1 [Compound 407]
32 | ≤ 100 nM | 100 to 1000 nM | COC[C@H](C)Nc1ncc2c(-c3cnn(C4(C(=O)N5CCCC5)CC4)c3)cc([C@H]3CC[C@H](O)CC3)n2n1 [Compound 408]
33 | ≤ 100 nM | 100 to 1000 nM | CNC(=O)c1cc(-c2cc([C@H]3CC[C@H](O)CC3)n3nc(N[C@@H](C)COC(F)F)ncc23)ccn1 [Compound 411]
34 | ≤ 100 nM | ≤ 100 nM | C[C@@H](CC(F)(F)F)Nc1ncc2c(C3=CCN(C(=O)OC(C)(C)C)CC3)cc([C@H]3CC[C@H](O)CC3)n2n1 [Compound 412]
35 | ≤ 100 nM | ≤ 100 nM | CC(=O)N1CCN(Cc2ccc(-c3cc([C@H]4CC[C@H](O)CC4)n4nc(N[C@@H](C)COC(F)F)ncc34)cc2)CC1 [Compound 413]
36 | ≤ 100 nM | 1000 to 10000 nM | COC[C@H](C)Nc1ncc2c(-c3cnn(C4(C(=O)N5CCOCC5)CC4)c3)cc([C@H]3CC[C@H](O)CC3)n2n1 [Compound 414]
37 | ≤ 100 nM | 1000 to 10000 nM | COC[C@H](C)Nc1ncc2c(-c3cnn(C4(C(=O)NC(C)C)CC4)c3)cc([C@H]3CC[C@H](O)CC3)n2n1 [Compound 415]
38 | ≤ 100 nM | 100 to 1000 nM | COC[C@H](C)Nc1ncc2c(-c3ccnc(N[C@@H]4CCOC4)c3)cc([C@H]3CC[C@H](O)CC3)n2n1 [Compound 416]
39 | ≤ 100 nM | 100 to 1000 nM | COC[C@H](C)Nc1ncc2c(-c3ccnc(NC4CCOC4)c3)cc([C@H]3CC[C@H](O)CC3)n2n1 (stereo partly drawn) [Compound 418]
